Tests used:
[1] = tested on: S. aureus ATCC6538; assay: Bacterial killing kinetics; type: cell-based, Staphylococcus aureus; conditions: after 4 h of treatment
[2] = tested on: S. aureus USA300 LAC; assay: Mouse peritonitis model, CFU in organs, blood and IP fluid, MRSA; type: in vivo; conditions: Figure 6d
Description: This infection model was conducted according to the previously reported method with slight modification. Female ICR mice (21–24 g) were used for MRSA-infected peritonitis model. Mice were infected by intraperitoneal administration of 0.2 mL of S. aureus USA300 LAC in saline (7.5 × 10^8 CFU/mL) supplemented with 5% mucin. […] Once the infected mice died, peritoneal lavage was performed by injecting 3.0 mL of saline into the peritoneal cavity and massaging the abdomen. Subsequently, the abdomen was opened and peritoneal fluid was recovered from the abdominal cavity for analysis. Blood samples were collected through cardiac puncture for analysis of CFU/mL. Then, different organs including the heart, liver, spleen, lung, and kidney were removed and homogenized in 0.1% TX-100 solution. The homogenate was serially diluted for plating on LB agar. After incubation at 37 °C for 14 h, the number of colonies on the plate was counted to calculate the bacteria burden. Surviving mice were euthanized at 48 h after infection. The blood, peritoneal fluid, and organs were collected for the determination of bacterial colonies. […] For the pretreatment group, mice were sacrificed and tissues were harvested to determine the CFU at 1 h post infection.

CN[C@H](CC(C)C)C(=O)N[C@H]1C(=O)N[C@@H](CC(N)=O)C(=O)N[C@H]2C(=O)N[C@H]3C(=O)N[C@H](C(=O)N[C@H](C(=O)O)c4cc(O)cc(O)c4-c4cc3ccc4O)[C@H](O)c3ccc(c(Cl)c3)Oc3cc2cc(c3O[C@@H]2O[C@H](CO)[C@@H](O)[C@H](O)[C@H]2O[C@H]2C[C@](C)(N)[C@H](O)[C@H](C)O2)Oc2ccc(cc2Cl)[C@H]1O [Vancomycin]
reduction of the bacteria [1]: about 0.3 log | Log10(CFU/mL IP fluid) ([2]; individual mouse 1 of 6): 3.724 Log10(CFU/mL) | Log10(CFU/mL IP fluid) ([2]; individual mouse 2 of 6): 3.912 Log10(CFU/mL) | Log10(CFU/mL IP fluid) ([2]; individual mouse 3 of 6): 2.845 Log10(CFU/mL) | Log10(CFU/mL IP fluid) ([2]; individual mouse 4 of 6): 3.255 Log10(CFU/mL) | Log10(CFU/mL IP fluid) ([2]; individual mouse 5 of 6): 3.595 Log10(CFU/mL) | Log10(CFU/mL IP fluid) ([2]; individual mouse 6 of 6): 1.824 Log10(CFU/mL) | Log10(CFU/mL Blood) ([2]; individual mouse 1 of 6): 1.824 Log10(CFU/mL) | Log10(CFU/mL Blood) ([2]; individual mouse 2 of 6): 3.213 Log10(CFU/mL) | Log10(CFU/mL Blood) ([2]; individual mouse 3 of 6): 3.885 Log10(CFU/mL) | Log10(CFU/mL Blood) ([2]; individual mouse 4 of 6): 1.523 Log10(CFU/mL) | Log10(CFU/mL Blood) ([2]; individual mouse 5 of 6): 2.222 Log10(CFU/mL) | Log10(CFU/mL Blood) ([2]; individual mouse 6 of 6): 0 Log10(CFU/mL) | Log10(CFU/g Heart) ([2]; individual mouse 1 of 6): 0 Log10(CFU/g) | Log10(CFU/g Heart) ([2]; individual mouse 2 of 6): 2.523 Log10(CFU/g) | Log10(CFU/g Heart) ([2]; individual mouse 3 of 6): 2.824 Log10(CFU/g) | Log10(CFU/g Heart) ([2]; individual mouse 4 of 6): 2.824 Log10(CFU/g) | Log10(CFU/g Heart) ([2]; individual mouse 5 of 6): 3 Log10(CFU/g) | Log10(CFU/g Heart) ([2]; individual mouse 6 of 6): 0 Log10(CFU/g) | Log10(CFU/g Kidney) ([2]; individual mouse 1 of 6): 3.222 Log10(CFU/g) | Log10(CFU/g Kidney) ([2]; individual mouse 2 of 6): 4.951 Log10(CFU/g) | Log10(CFU/g Kidney) ([2]; individual mouse 3 of 6): 4.845 Log10(CFU/g) | Log10(CFU/g Kidney) ([2]; individual mouse 4 of 6): 2.824 Log10(CFU/g) | Log10(CFU/g Kidney) ([2]; individual mouse 5 of 6): 2.523 Log10(CFU/g) | Log10(CFU/g Kidney) ([2]; individual mouse 6 of 6): 4.247 Log10(CFU/g) | Log10(CFU/g Liver) ([2]; individual mouse 1 of 6): 3.125 Log10(CFU/g) | Log10(CFU/g Liver) ([2]; individual mouse 2 of 6): 4.501 Log10(CFU/g) | Log10(CFU/g Liver) ([2]; individual mouse 3 of 6): 3.477 Log10(CFU/g) | Log10(CFU/g Liver) ([2]; individual mouse 4 of 6): 4.398 Log10(CFU/g) | Log10(CFU/g Liver) ([2]; individual mouse 5 of 6): 3.699 Log10(CFU/g) | Log10(CFU/g Liver) ([2]; individual mouse 6 of 6): 3.699 Log10(CFU/g) | Log10(CFU/g Lung) ([2]; individual mouse 2 of 6): 4.23 Log10(CFU/g) | Log10(CFU/g Lung) ([2]; individual mouse 3 of 6): 3.125 Log10(CFU/g) | Log10(CFU/g Lung) ([2]; individual mouse 5 of 6): 3 Log10(CFU/g) | Log10(CFU/g Lung) ([2]; individual mouse 6 of 6): 3 Log10(CFU/g) | Log10(CFU/g Spleen) ([2]; individual mouse 1 of 6): 3.426 Log10(CFU/g) | Log10(CFU/g Spleen) ([2]; individual mouse 2 of 6): 4.689 Log10(CFU/g) | Log10(CFU/g Spleen) ([2]; individual mouse 3 of 6): 3.885 Log10(CFU/g) | Log10(CFU/g Spleen) ([2]; individual mouse 4 of 6): 4.404 Log10(CFU/g) | Log10(CFU/g Spleen) ([2]; individual mouse 5 of 6): 4.222 Log10(CFU/g) | Log10(CFU/g Spleen) ([2]; individual mouse 6 of 6): 4.204 Log10(CFU/g)

Source: article PMC8501045, “Addressing MRSA infection and antibacterial resistance with peptoid polymers” (Nature Communications, 2021)
